Assay results taken from ChEMBL document CHEMBL3588816, “Molecular modeling of the human P2Y14 receptor: A template for structure-based design of selective agonist ligands” (Bioorg Med Chem, 2015).
Activity calls are given as the source filed them. The rule behind the calls is not given here.

Molecular target: T1, P2Y purinoceptor 14 (Homo sapiens, UniProt Q15391)
T1 sequence (Q15391 whole entry): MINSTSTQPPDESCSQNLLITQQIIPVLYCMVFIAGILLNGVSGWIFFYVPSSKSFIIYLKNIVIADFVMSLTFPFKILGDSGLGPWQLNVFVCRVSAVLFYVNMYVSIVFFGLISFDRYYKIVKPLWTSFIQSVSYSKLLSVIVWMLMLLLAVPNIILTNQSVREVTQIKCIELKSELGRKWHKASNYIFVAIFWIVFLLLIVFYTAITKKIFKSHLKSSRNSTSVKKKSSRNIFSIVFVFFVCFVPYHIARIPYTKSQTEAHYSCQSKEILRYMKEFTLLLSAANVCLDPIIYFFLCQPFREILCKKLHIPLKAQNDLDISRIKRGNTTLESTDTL
Assay: Agonist activity at recombinant human P2Y14 receptor expressed in African green monkey COS7 cells co-transfected with Galphaqi assessed as stimulation of phospholipase Cbeta
Format: cell-based, COS-7
Details: not given

EC50 [nM] | SMILES
11 | O=c1ccn([C@@H]2O[C@H](COP(=O)(O)OP(=O)(O)O[C@H]3O[C@H](CO)[C@@H](O)[C@H](O)[C@H]3O)[C@@H](O)[C@H]2O)c(=S)[nH]1

Molecular target: T2, P2Y purinoceptor 14 (Homo sapiens) (UniProt Q15391)
T2 sequence (whole entry): T1 sequence (Q15391 whole entry)
Assay: Agonist activity at recombinant human P2Y14 receptor expressed in African green monkey COS7 cells co-transfected with Galphaqi assessed as stimulation of phospholipase Cbeta at 10 uM
Format: cell-based
Details: COS-7

Activity | SMILES
inactive | [N-]=[N+]=Nc1cn([C@@H]2O[C@H](COP(=O)(O)OP(=O)(O)O[C@H]3O[C@H](CO)[C@@H](O)[C@H](O)[C@H]3O)[C@@H](O)[C@H]2O)c(=O)[nH]c1=O
inactive | O=c1[nH]c(=O)n([C@@H]2O[C@H](COP(=O)(O)OP(=O)(O)O[C@H]3O[C@H](CO)[C@@H](O)[C@H](O)[C@H]3O)[C@@H](O)[C@H]2O)cc1I
inactive | O=c1ccn([C@]23C[C@H]2[C@H](COP(=O)(O)OP(=O)(O)O[C@H]2O[C@H](CO)[C@@H](O)[C@H](O)[C@H]2O)[C@@H](O)[C@H]3O)c(=O)[nH]1

More lines, now with the values behind:

SMILES | Activity
N[C@@H]1[C@H](O)[C@@H](COP(=O)(O)OP(=O)(O)O[C@H]2O[C@H](CO)[C@@H](O)[C@H](O)[C@H]2O)O[C@H]1n1ccc(=O)[nH]c1=O | inactive
[N-]=[N+]=N[C@@H]1[C@H](O)[C@@H](COP(=O)(O)OP(=O)(O)O[C@H]2O[C@H](CO)[C@@H](O)[C@H](O)[C@H]2O)O[C@H]1n1ccc(=O)[nH]c1=O | inactive
Nc1cn([C@@H]2O[C@H](COP(=O)(O)OP(=O)(O)O[C@H]3O[C@H](CO)[C@@H](O)[C@H](O)[C@H]3O)[C@@H](O)[C@H]2O)c(=O)[nH]c1=O | inactive
O=c1ccn([C@H]2[C@H](O)[C@H](O)[C@]3(COP(=O)(O)OP(=O)(O)O[C@H]4O[C@H](CO)[C@@H](O)[C@H](O)[C@H]4O)C[C@H]23)c(=O)[nH]1 | inactive
